Legend:
[1] = molecular target: T1, human serotonin 5-HT transporter (SERT) (Homo sapiens, UniProt P31645); assay: Serotonin transporter binding assay ([3H]imipramine, CEREP); conditions: ligand [3H]imipramine, transfected CHO cells, HCl salts
T1 construct: host or cells: CHO cells, cell membrane homogenates
Experimental: (§1) Transporter Binding and Cellular Uptake. All described monoamine transporter binding studies as well as cellular uptake assays were performed in duplicate by CEREP (Celle l'Evescault, France) and are described below. Further details of all assays performed may be accessed at the CEREP web site (world-wide-web at cerep.com). Cellular-based assays were conducted to provide complementary in vitro functional measures to complement the standard transporter assays as well as to provide direct comparisons of the homologs IPH with MPH with regard to DA, NE, and 5-HT uptake in synaptosomal preparations. The concentration of MPH, EPH, and IPH utilized in these studies was 10 μM, which represents a generally accepted screening concentration when evaluating compounds in this manner.
Serotonin Transporter Binding Assay. […] Briefly, cell membrane homogenates were incubated for 90 min at 4° C. with 2 nM of [^3H]imipramine in the absence and presence of each of the assessed compounds. Nonspecific binding was determined in the presence of 10 μM of imipramine. […] The filters were then dried and measured for radioactivity via scintillation counter. The standard reference compound was the TCA imipramine, which was tested in each experiment at several concentrations to generate a competition curve from which its IC50 was calculated.

[2] = system: human intestinal microsomes (HIM); assay: Hydrolysis to ritalinic acid by human intestinal microsomes; type: in vitro ADME; conditions: 1 mM substrate, 0.2 mg/ml HIM, 37° C., 60 min
Experimental: (§2) FIG. 2—Hydrolysis of methylphenidate (MPH) and isopropylphenidate (IPH) by recombinant human CES1, HLM, HIM. After incubation with CES 1 transfected human cells, HLM, and HIM at 37° C. for 60 min, the metabolite RA produced via hydrolysis of MPH and IPH was determined by HPLC. Data are presented as mean±SEM of 3 to 6 independent experiments.
(§3) Determination of Relative Hydrolytic Rates of MPH and IPH. The assessment of relative rates of hydrolysis of the two ester compounds utilized both cell culture and human liver microsomes (HLM) and human intestinal microsomes (HIM). The human carboxylesterase 1 (hCES1) s9 fraction was prepared utilizing a novel method developed in the inventors' laboratory previously (Zhu et al., 2008). Hydrolysis of IPH and MPH by hCES1, HLM, and human intestinal microsomes was assessed by incubating the substrates with the respective enzymes and measuring the formation of the major metabolite RA formed via ester hydrolysis. Briefly, 50 μl of freshly prepared substrates (IPH and MPH) was mixed with 50 μl of enzymes in 1.5 ml Eppendorf tubes yielding a total volume of 100 μl. […] Concentrations of the primary hydrolytic product of the two compounds, RA were determined utilizing a validated HPLC method previously described.

[3] = molecular target: T2, human dopamine (DA) transporter (DAT) (Homo sapiens, UniProt Q01959); assay: Dopamine transporter binding assay ([3H]GBR 12935, CEREP); conditions: HCl salts
T2 construct: host or cells: CHO cells, cell membrane homogenates
Experimental: as §1, with “The concentration of MPH, EPH, and IPH utilized in these studies was 10 μM, which represents a generally accepted screening concentration when evaluating compounds in this manner.” left out
Dopamine Transporter Binding Assay. Evaluation of the affinity of both compounds for the human dopamine (DA) transporter (DAT) in transfected Chinese Hamster Ovary (CHO) cells was determined in a validated radioligand binding assay. […] Nonspecific binding was determined in the presence of 10 μM N-[1-(Benzo[b]thien-2-yl-cyclohexyl)] piperidine (BTCP). […] The filters were then dried and measured for radioactivity with a scintillation counter (TopCount, Packard) using a liquid scintillation cocktail (Microscint 0, Packard). The results of DAT binding experiments as well as the other transporter assays described in the following sections were expressed as a percent inhibition of the control radioligand specific binding. […]

[4] = system: 5-HT uptake, synaptosomes prepared from the rat brain; assay: Serotonin uptake into synaptosomes; type: cell-based
Experimental: as §1, with “preparations.” for “preparations. The concentration of MPH, EPH, and IPH utilized in these studies was 10 μM, which represents a generally accepted screening concentration when evaluating compounds in this manner.”
Serotonin Uptake. The assessment of the relative effects of IPH and MPH on 5-HT uptake utilized measures of [^3H]5-HT incorporation into synaptosomes prepared from the rat brain. […] Following incubation, the samples were filtered, counted using a scintillation instrument, and the results expressed as a percent inhibition of the control uptake of [^3H]5-HT. The standard inhibitory reference compound was the TCA imipramine, which was tested in each experiment at several concentrations to obtain an inhibition curve from which its IC50 value was calculated.

[5] = system: human liver microsomes (HLM); assay: Hydrolysis to ritalinic acid by human liver microsomes; type: in vitro ADME; conditions: 1 mM substrate, 0.2 mg/ml HLM, 37° C., 60 min
Experimental: as §2, §3

dogs = conditions: reserpine pre-treated dogs; cited from earlier work
[6] = system: DA uptake, synaptosomes prepared from the rat striatum; assay: Dopamine uptake into synaptosomes; type: cell-based
Experimental: as §1, with “preparations.” for “preparations. The concentration of MPH, EPH, and IPH utilized in these studies was 10 μM, which represents a generally accepted screening concentration when evaluating compounds in this manner.”
Dopamine Uptake. The evaluation of the effects of the two compounds on DA uptake again utilized synaptosomes but this time prepared from the rat striatum. […] After incubation, the samples were filtered, counted, and the results expressed as a percent inhibition of the control uptake of [^3H]dopamine by scintillation count. The standard inhibitory reference compound was GBR12909, which was tested in each experiment at several concentrations to obtain an inhibition curve from which its IC50 value was calculated.

T2 sequence (Q01959 whole entry): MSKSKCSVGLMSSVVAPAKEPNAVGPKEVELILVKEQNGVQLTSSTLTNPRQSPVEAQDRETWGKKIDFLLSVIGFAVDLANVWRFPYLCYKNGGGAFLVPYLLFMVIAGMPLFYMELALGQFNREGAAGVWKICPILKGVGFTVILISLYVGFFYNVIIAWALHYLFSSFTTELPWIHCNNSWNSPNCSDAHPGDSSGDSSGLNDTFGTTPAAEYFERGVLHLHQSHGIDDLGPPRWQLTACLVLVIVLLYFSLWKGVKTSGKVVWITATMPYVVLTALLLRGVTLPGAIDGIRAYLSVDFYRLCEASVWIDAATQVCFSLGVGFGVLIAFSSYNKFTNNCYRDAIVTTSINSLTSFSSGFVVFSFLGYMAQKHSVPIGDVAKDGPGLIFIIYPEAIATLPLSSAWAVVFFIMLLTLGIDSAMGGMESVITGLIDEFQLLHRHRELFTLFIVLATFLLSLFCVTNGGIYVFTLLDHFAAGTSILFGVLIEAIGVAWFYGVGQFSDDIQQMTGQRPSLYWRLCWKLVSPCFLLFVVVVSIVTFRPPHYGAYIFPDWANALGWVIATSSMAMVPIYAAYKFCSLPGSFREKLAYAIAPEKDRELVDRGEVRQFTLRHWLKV
T1 sequence (P31645 whole entry): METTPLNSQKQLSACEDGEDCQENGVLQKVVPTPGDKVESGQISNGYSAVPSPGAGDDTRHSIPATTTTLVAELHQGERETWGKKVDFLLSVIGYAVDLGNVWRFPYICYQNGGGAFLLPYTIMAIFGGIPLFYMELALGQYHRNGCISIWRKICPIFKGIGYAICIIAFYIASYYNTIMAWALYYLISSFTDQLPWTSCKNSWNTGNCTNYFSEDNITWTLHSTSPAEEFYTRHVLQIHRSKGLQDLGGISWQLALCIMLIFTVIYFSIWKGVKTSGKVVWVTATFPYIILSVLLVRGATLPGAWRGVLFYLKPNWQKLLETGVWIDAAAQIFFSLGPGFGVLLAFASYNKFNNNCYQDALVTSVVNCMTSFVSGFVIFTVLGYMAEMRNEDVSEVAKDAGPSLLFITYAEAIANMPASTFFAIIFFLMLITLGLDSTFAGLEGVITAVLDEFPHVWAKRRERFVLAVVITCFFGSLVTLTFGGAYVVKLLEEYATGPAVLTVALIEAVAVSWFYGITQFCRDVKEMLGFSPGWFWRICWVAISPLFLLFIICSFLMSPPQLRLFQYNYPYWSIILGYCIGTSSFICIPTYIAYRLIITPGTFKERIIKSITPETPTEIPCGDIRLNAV

SMILES | % inhibition of control specific binding, SERT (h) ([1]; 10 μM) [%] | catalytic activity of HIM on hydrolysis [2] | % inhibition of control specific binding, DAT (h) ([3]; 10 μM, ligand [3H]GBR-12935, transfected CHO cells) [%] | % inhibition of control specific binding; [3H]5-HT incorporation into synaptosomes ([4]; 10 μM) [%] | resistance to hydrolysis by HLM [5] | potency versus MPH in antagonizing the physiological influences of reserpine (dogs) | % inhibition of control specific binding; [3H]DA incorporation into synaptosomes ([6]; 10 μM, rat striatum synaptosomes) [%] | inhibition at 10 µM ([1]; read-out: % inhibition of control specific binding, SERT (h)) [%] | inhibition at 10 µM ([3]; ligand [3H]GBR-12935, transfected CHO cells, read-out: % inhibition of control specific binding, DAT (h)) [%] | inhibition at 10 µM ([4]; read-out: % inhibition of control specific binding, [3H]5-HT incorporation into synaptosomes) [%] | inhibition at 10 µM ([6]; Rattus norvegicus, read-out: % inhibition of control specific binding, [3H]DA incorporation into synaptosomes) [%]
CC(C)OC(=O)C(c1ccccc1)C1CCCCN1 (racemic) [IPH, dl-threo-α-phenyl-2-piperidineacetic acid isopropyl ester] | 20 | extremely low | 97 | 28 | most resistant substrate to HLM | lower potency | 96 |  |  |  | 
COC(=O)C(c1ccccc1)C1CCCCN1 (racemic) [MPH, dl-threo-methylphenidate, reference compound] |  | extremely low |  |  |  |  |  | 6 | 101 | 35 | 90

— patent US20120245201A1, “Isopropylphenidate for Treatment of Attention-Deficit/Hyperactivity Disorder and Fatigue-Related Disorders and Conditions” (priority 2009, published 2012)
